Assays:
[1] = Toxicity in male Sprague-Dawley rat assessed as loss of righting reflex at 7.8 micromol/kg, ip measured within 4 hrs; assay type: organism-based; conditions: in vivo, dose 7.8 µmol/kg
[2] = Toxicity in male Sprague-Dawley rat assessed as risk of consciousness loss by measuring time for first loss of righting reflex at 12.2 micromol/kg, ip measured within 4 hrs; assay type: organism-based; conditions: in vivo, dose 12.2 µmol/kg
[3] = molecular target: GABA-A receptor; anion channel; test: Inhibition of [35S]TBPS binding to GABA-A receptor in Sprague-Dawley rat brain cortical membrane incubated for 90 mins by liquid scintillation spectrometry; assay type: cell membranes, Cortex
[4] = Genotoxicity in Salmonella typhimurium TA97 assessed as induction of reverse mutation in presence of rat liver S9 fraction; assay type: toxicity, subcellular; conditions: salmonella enterica subsp. enterica serovar typhimurium
[5] = Genotoxicity in Salmonella typhimurium TA98 assessed as induction of reverse mutation in absence of rat liver S9 fraction; assay type: toxicity; conditions: salmonella enterica subsp. enterica serovar typhimurium
[6] = Genotoxicity in Salmonella typhimurium TA1535 assessed as induction of reverse mutation in absence of rat liver S9 fraction; assay type: toxicity; conditions: salmonella enterica subsp. enterica serovar typhimurium
[7] = Toxicity in male Sprague-Dawley rat assessed as risk of consciousness loss by measuring time for first loss of righting reflex at 29.2 micromol/kg, ip measured within 4 hrs; assay type: organism-based; conditions: in vivo, dose 29.2 µmol/kg

Compound	Activity [1]	Time [2]	IC50 [3]	Activity [4]	Activity [5]	Activity [6]	Time [7]
C[C@@]1(O)CC[C@H]2[C@H](CC[C@@H]3[C@@H]2CC[C@]2(C)[C@@H](C(=O)Cn4cc(C#N)cn4)CC[C@@H]32)C1 [ZURANOLONE]	Non-Toxic	33 min	7 nM				
C[C@@]1(O)CC[C@H]2[C@H](CC[C@@H]3[C@@H]2CC[C@]2(C)[C@@H](C(=O)Cn4cnn(-c5cc(F)nc(F)c5)c4=O)CC[C@@H]32)C1				Non-Toxic	Non-Toxic	Non-Toxic	65 min

— ChEMBL document CHEMBL5608182, “Synthesis and evaluation of neuroactive steroids with novel pharmacophore at C-21 let identify a compound with advantageous PK profile and higher EC50 and Emax as PAM on GABAA receptor” (Eur J Med Chem, 2024)
